# Data taken from patent US20260125356A1, “TREATMENT OF LEISHMANIASIS” (THE UNIVERSITY OF DURHAM, priority 2022, published 2026).
# Where two headings read alike, the source gives them in different places.
# Key:
# [1] = tested on: L. major promastigotes; assay: L. major promastigote dose response assay (alamarBlue/resazurin); assay type: cell-based; details: for EC50: 44 hrs + 4 hrs alamarBlue/resazurin, 26° C.
# Description: Using a standard alamarBlue™ assay, activity and selectivity were assessed using L. major promastigotes and HepG2 cells, respectively.
# All parasite and human cell cultures were grown and manipulated following biosafety level 2 instructions under sterile conditions. L. major FV1, L. amazonensis (MHOM/Br/75/JOSEFA), L. donovani BOB (derived from MHOM/SD/62/1S-CL2D), T. brucei (90-13, 427 strain) and T. cruzi (Dm28c) were used throughout.
# All steps were carried out under sterile conditions. Frozen stocks of the relevant Leishmania promastigote species were thawed rapidly and added to Schneider's media. Promastigotes were grown at 26° C. in Nunc EasYFlask 25 cm^2 Nunclon Delta Surface (ThermoScientific) and frozen stocks were prepared on low passage cultures (p2-4) by pelleting the cells by centrifugation and resuspending in Schneider's media with 10% DMSO. The cultures were aliquoted into cryovials (Starlab) and cooled slowly to −150° C. for long term storage.
# All steps were carried out under sterile conditions. […] Cycloheximide or amphotericin B were used as positive controls and 2% DMSO was used as a negative control. alamarBlue® (ThermoFisher scientific) or resazurin solution was added to each well and incubated for a further 4 hrs at 26° C. Cell-viability was determined using a BioTek™ FLx800 microplate reader with Gen5® 1.08 data analysis software (BioTek) by monitoring fluorescence emission (λex 560/λem 590 nm). Dose response curves were fitted using sigmoidal regression analysis (GraphPad Prism 8 software) and used to calculate EC50 values.
# [2] = Kinetic solubility; details: PBS, aqueous buffer, kinetic from dmso stock
# From the text: All chemicals and solvents were sourced from commercial suppliers. Buffers were made up using purified water from a MilliQ® water purification system. Biorelevant buffers (FESSIF, FASSIF and FASSGF) were purchased from Biorelevant and made up according to manufacturer's instructions. 15% FBS (heat inactivated, South American origin, ThermoFisher scientific) in PBS (Fisher Scientific) was filter sterilised (0.22 μm Fisherbrand™ Sterile PES Syringe Filter, Fisher Scientific) before use. Sodium taurocholate was purchased from Merck.
# λmax was determined for each compound from the UV-Vis absorption spectrum of a 200 LIM compound solution in buffer of interest using a Varian Cary® 100 UV-Vis Spectrophotometer. A calibration curve of λmax VS concentration was obtained by serial dilution of compound from 200 μM in the buffer of interest, correcting for background buffer absorption. For each sample, a DMSO solution of compound was incubated in buffer of interest (<5% DMSO) for 2 hrs at RT. The solution was filtered (0.22 μm Fisherbrand™ Sterile PES Syringe Filter, Fisher Scientific) or centrifuged (14,500 rpm, 10 min) to remove undissolved debris and the supernatant was removed and diluted as required. The corrected UV absorption of the supernatant at Amax Was measured using a Varian Cary® 100 UV-Vis Spectrophotometer and compared to the calibration curve to determine compound solubility.
# [3] = tested on: L. amazonensis promastigotes; assay: L. amazonensis promastigote dose response assay (alamarBlue/resazurin); assay type: cell-based; details: 44 hrs + 4 hrs alamarBlue/resazurin, 26° C., read-out: EC50 (L. amaz)/μM
compound,measurement,setting,value
"CNC(=O)c1cc(C)ccc1NC(=O)c1ccc([N+](=O)[O-])s1 [Compound 42, N-[4-methyl-2-(methylcarbamoyl)phenyl]-5′-nitrothiophene-2′-carboxamide]",EC50,[1],2.7 µM
"CNC(=O)c1c(C)cccc1NC(=O)c1ccc([N+](=O)[O-])s1 [Compound 40, N-[3-methyl-2-(methylcarbamoyl)phenyl]-5′-nitrothiophene-2′-carboxamide]",EC50,[1],8.5 µM
"O=C(c1ccc([N+](=O)[O-])s1)N1CCCc2ccccc21 [Compound 49, 1-(5′-nitrothiophene-2′-carbonyl)-1,2,3,4-tetrahydroquinoline]",EC50,"[1]; Leishmania major, 48 h",11.1 ± 0.3 µM
same,solubility at 2 h,[2],151 ± 3 µM
"O=C(Nc1cccc(C(F)(F)F)c1)c1ccc([N+](=O)[O-])s1 [Compound 37, 5′-nitro-N-[3-(trifluoromethyl)phenyl]thiophene-2′-carboxamide]",EC50,[1],3.5 µM
same,EC50,[3],2.22 µM
5′-bromo-N-[3-(methylcarbamoyl)thiophen-2-yl]thiophene-2′-carboxamide [Compound 7],EC50,[1],> 100 µM
same,EC50,[3],> 100 µM
"O=C(NC1CCCC1C(=O)O)c1ccc([N+](=O)[O-])s1 (racemic) [Compound 24, ±anti 2-(5′-nitrothiophene-2′-amido)cyclopentane-1-carboxylic acid]",EC50,[1],> 100 µM
same,EC50,[3],> 100 µM
"CNC(=O)c1ccsc1NC(=O)c1ccncc1 [Compound 14, N-[3-(methylcarbamoyl)thiophen-2-yl]pyridine-4′-carboxamide]",EC50,"[1]; Leishmania major, 48 h",82 ± 1 µM
same,EC50,"[3]; Leishmania amazonensis, 48 h",45 ± 5 µM
"CCCCCCCCCCCCCNC(=O)c1ccccc1NC(=O)c1ccc([N+](=O)[O-])s1 [Compound 39, 5′-nitro-N-[2-(tridecylcarbamoyl)phenyl]thiophene-2′-carboxamide]",EC50,[1],> 100 µM
"CCOC(=O)C1CCCC1NC(=O)c1ccc([N+](=O)[O-])s1 (stereo not drawn) [Compound 22, anti-ethyl-2-(5′-nitrothiophene-2′-amido)cyclopentane-1-carboxylate]",EC50,[1],10 µM
same,EC50,[3],13 µM
"CNC(=O)c1ccsc1NC(=O)c1cncs1 [Compound 12, N-[3-(methylcarbamoyl)thiophen-2-yl]-1′,3′-thiazole-5′-carboxamide]",EC50,"[1]; Leishmania major, 48 h",88 ± 6 µM
same,EC50,"[3]; Leishmania amazonensis, 48 h",53 ± 3 µM
"CNC(=O)c1ccsc1N(C)C(=O)c1ccc([N+](=O)[O-])s1 [Compound 48, N-methyl-2-(N-methyl-5′-nitrothiophene-2′-amido)thiophene-3-carboxamide]",EC50,"[1]; Leishmania major, 48 h",9.6 ± 0.7 µM
same,solubility at 2 h,[2],190 ± 20 µM
"CNC(=O)c1ccsc1NC(=O)c1ccc2nonc2c1 [Compound 16, N-[3-(methylcarbamoyl)thiophen-2-yl]-2,1,3-benzoxadiazole-5′-carboxamide]",EC50,"[1]; Leishmania major, 48 h",> 100 µM
same,EC50,"[3]; Leishmania amazonensis, 48 h",> 100 µM
"CNC(=O)c1ccsc1/N=C/c1ccc([N+](=O)[O-])s1 [Compound 50, N-methyl-2-[(E)-[(5′-nitrothiophen-2′-yl)methylidene]amino]thiophene-3-carboxamide]",EC50,"[1]; Leishmania major, 48 h",0.86 ± 0.07 µM
same,solubility at 2 h,[2],101 ± 6 µM
"CNC(=O)c1ccsc1NC(=O)c1ccccc1 [Compound 10, 2-benzamido-N-methylthiophene-3-carboxamide]",EC50,"[1]; Leishmania major, 48 h",75 ± 5 µM
same,EC50,"[3]; Leishmania amazonensis, 48 h",55 ± 5 µM
"CNC(=O)c1ccsc1NC(=O)c1cccc([N+](=O)[O-])c1 [Compound 18, N-methyl-2-(3′-nitrobenzamido)thiophene-3-carboxamide]",EC50,"[1]; Leishmania major, 48 h",> 100 µM
same,EC50,"[3]; Leishmania amazonensis, 48 h",> 100 µM
"O=C(Nc1ccccc1C(F)(F)F)c1ccc([N+](=O)[O-])s1 [Compound 31, 5′-nitro-N-[2-(trifluoromethyl)phenyl]thiophene-2′-carboxamide]",EC50,[1],8.3 µM
same,EC50,[3],4.24 µM
"CNC(=O)c1ccsc1NC(=O)c1cscn1 [Compound 13, N-[3-(methylcarbamoyl)thiophen-2-yl]-1′,3′-thiazole-4′-carboxamide]",EC50,"[1]; Leishmania major, 48 h",> 100 µM
same,EC50,"[3]; Leishmania amazonensis, 48 h",93 ± 7 µM
"CCOC(=O)C1=C(NC(=O)c2ccc([N+](=O)[O-])s2)CCC1 [Compound 26, Ethyl 2-(5′-nitrothiophene-2′-amido)cyclopent-1-ene-1-carboxylate]",EC50,"[1]; Leishmania major, 48 h",0.46 µM
same,EC50,"[3]; Leishmania amazonensis, 48 h",0.72 µM
"CC(C)NC(=O)c1ccccc1NC(=O)c1ccc([N+](=O)[O-])s1 [Compound 38, 5′-nitro-N-{[(propan-2-yl)carbamoyl]-2-phenyl}thiophene-2′-carboxamide]",EC50,[1],4 µM
"O=c1oc(-c2ccc([N+](=O)[O-])s2)nc2ccccc12 [Compound 57, 2-(5′-nitrothiophen-2′-yl)-4H-3,1-benzoxazin-4-one]",EC50,"[1]; Leishmania major, 48 h",38 µM
"CNC(=O)c1ccsc1NC(=O)c1nccs1 [Compound 11, N-[3-(methylcarbamoyl)thiophen-2-yl]-1′,3′-thiazole-2′-carboxamide]",EC50,"[1]; Leishmania major, 48 h",78 ± 2 µM
same,EC50,"[3]; Leishmania amazonensis, 48 h",> 100 µM
"CNC(=O)c1cccc(Nc2ccc([N+](=O)[O-])s2)c1 [Compound 34, N-methyl-3-[(5′-nitrothiophen-2′-yl)amino]benzamide]",EC50,[1],3.5 µM
same,EC50,[3],0.26 µM
"CNC(=O)c1ccsc1NC(=O)c1cccs1 [Compound 6, N-methyl-2-(thiophene-2′-amido)thiophene-3-carboxamide]",EC50,"[1]; Leishmania major, 48 h",> 100 µM
same,EC50,"[3]; Leishmania amazonensis, 48 h",> 100 µM
5′-amino-N-[3-(methylcarbamoyl)thiophen-2′-yl]thiophene-2-carboxamide [Compound 8],EC50,[1],> 100 µM
"CNC(=O)c1ccsc1NC(=O)c1ccc([N+](=O)[O-])cc1C(F)(F)F [Compound 20, N-methyl-2-[4′-nitro-2′-(trifluoromethyl)benzamido]thiophene-3-carboxamide]",EC50,"[1]; Leishmania major, 48 h",16.6 ± 0.2 µM
same,improvement in antileishmanial activity compared to 19,[1]; Table 2,> 3 fold
same,EC50,"[3]; Leishmania amazonensis, 48 h",38.7 µM
"CNC(=O)c1ccsc1NC(=O)c1cnc(Cl)s1 [Compound 9, N-[3-(methylcarbamoyl)thiophen-2-yl]-2′-chloro-1′,3′-thiazole-5′-carboxamide]",EC50,"[1]; Leishmania major, 48 h",33 ± 10 µM
"CCOC(=O)C1CCCC1NC(=O)c1ccc([N+](=O)[O-])s1 (stereo not drawn) [Compound 21, syn-ethyl-2-(5′-nitrothiophene-2′-amido)cyclopentane-1-carboxylate]",EC50,[1],22 µM
same,EC50,[3],9.7 µM
"COc1cccc(NC(=O)c2ccc([N+](=O)[O-])s2)c1 [Compound 35, N-(3-methoxyphenyl)-5′-nitrothiophene-2′-carboxamide]",EC50,[1],3.9 µM
"CNC(=O)c1cc(OC)ccc1NC(=O)c1ccc([N+](=O)[O-])s1 [Compound 41, N-[4-methoxy-2-(methylcarbamoyl)phenyl]-5′-nitrothiophene-2′-carboxamide]",EC50,[1],16 µM
"COc1ccccc1NC(=O)c1ccc([N+](=O)[O-])s1 [Compound 30, N-(2-methoxyphenyl)-5′-nitrothiophene-2′-carboxamide]",EC50,[1],6.3 µM
"CN(C)C(=O)c1ccccc1NC(=O)c1ccc([N+](=O)[O-])s1 [Compound 56, N-[2-(dimethylcarbamoyl)phenyl]-5′-nitrothiophene-2′-carboxamide]",EC50,"[1]; Leishmania major, 48 h",17 µM
same,EC50,"[3]; Leishmania amazonensis, 48 h",6.3 µM
"CNC(=O)c1ccsc1NC(=O)c1cccnc1 [Compound 15, N-[3-(methylcarbamoyl)thiophen-2-yl]pyridine-3′-carboxamide]",EC50,"[1]; Leishmania major, 48 h",82 ± 7 µM
same,EC50,"[3]; Leishmania amazonensis, 48 h",59 ± 2 µM
"COc1ccc(NC(=O)c2ccc([N+](=O)[O-])s2)cc1 [Compound 36, N-(4-methoxyphenyl)-5′-nitrothiophene-2′-carboxamide]",EC50,[1],3.45 µM
"CNC(=O)c1ccsc1NC(=O)c1ccc([N+](=O)[O-])cc1 [Compound 19, N-methyl 2-(4′-nitrobenzamido)thiophene-3-carboxamide]",EC50,"[1]; Leishmania major, 48 h",> 100 µM
same,EC50,"[3]; Leishmania amazonensis, 48 h",> 100 µM
"CC(=O)c1ccccc1NC(=O)c1ccc([N+](=O)[O-])s1 [Compound 32, N-(2-acetylphenyl)-5′-nitrothiophene-2′-carboxamide]",EC50,[1],16 µM
"O=C(N[C@H]1CCC[C@H]1C(=O)O)c1ccc([N+](=O)[O-])s1 (racemic) [Compound 23, ±syn 2-(5′-nitrothiophene-2′-amido)cyclopentane-1-carboxylic acid]",EC50,[1],> 100 µM
same,EC50,[3],52 µM
"O=C(Nc1ccccc1C(=O)O)c1ccc([N+](=O)[O-])s1 [Compound 29, 2-(5′-nitrothiophene-2′-amido)benzoic acid]",EC50,"[1]; Leishmania major, 48 h",46 µM
